Data published in patent publication US9718822B2, “Macrocyclic compounds as Trk kinase inhibitors” (Array BioPharma, Inc., priority 2010, dated 2017).
pIC50: −log10 of the molar value. Like-named read-outs stand apart in the source and are kept apart here.

Experiments:
[1] = target: histidine-tagged recombinant human TrkA, cytoplasmic domain (Homo sapiens (Human), UniProt P04629); test: TrkA ELISA Assay; assay type: biochemical; conditions: read-out: TrkA Elisa Enzyme Assay IC50; further: 2.5 nM TrkA
Procedure: An enzyme-linked immunosorbant assay (ELISA) was used to assess TrkA kinase activity in the presence of inhibitors. Immulon 4HBX 384-well microtiter plates (Thermo part #8755) were coated with a 0.025 mg/mL solution of poly (Glu, Ala, Tyr; 6:3:1; Sigma P3899). […] The assay buffer consisted of 25 mM MOPS pH 7.5, 0.005% (v/v) Triton X-100 and 5 mM MgCl2. The reaction mixture was removed from the plate by washing with PBS containing 0.1% (v/v) Tween 20. The phosphorylated reaction product was detected using 0.2 μg/mL of a phosphotyrosine specific monoclonal antibody (clone PY20) conjugated to horseradish peroxidase in conjunction with the TMB Peroxidase Substrate System (KPL). After the addition of 1M phosphoric acid, the chromogenic substrate color intensity was quantitated via absorbance at 450 nm. IC50 values were calculated using either a 4 or 5-parameter logistic curve fit.
Table 1 provides averaged IC50 values for compounds of the invention when tested in this assay.

[2] = target: His-tagged recombinant human TrkA (cytoplasmic domain) (Homo sapiens (Human), UniProt P04629); test: TrkA Binding Assay (LanthaScreen Eu Kinase Binding Assay)
Procedure: The ability of a compound to bind to TrkA was measured by Invitrogen's LanthaScreen™ Eu Kinase Binding Assay. […] After a 60-minute incubation at 22° C., the reaction was measured using the EnVision via TR-FRET dual wavelength detection, and the POC was calculated from the emission ratio. The compound dose response data was fit to a 4-parameter logistic model and IC50 was defined as the concentration of compound at 50 POC.

[3] = not given; remark: listed apart in the source

His-tagged recombinant human TrkA (cytoplasmic domain), sequence (P04629 440-796): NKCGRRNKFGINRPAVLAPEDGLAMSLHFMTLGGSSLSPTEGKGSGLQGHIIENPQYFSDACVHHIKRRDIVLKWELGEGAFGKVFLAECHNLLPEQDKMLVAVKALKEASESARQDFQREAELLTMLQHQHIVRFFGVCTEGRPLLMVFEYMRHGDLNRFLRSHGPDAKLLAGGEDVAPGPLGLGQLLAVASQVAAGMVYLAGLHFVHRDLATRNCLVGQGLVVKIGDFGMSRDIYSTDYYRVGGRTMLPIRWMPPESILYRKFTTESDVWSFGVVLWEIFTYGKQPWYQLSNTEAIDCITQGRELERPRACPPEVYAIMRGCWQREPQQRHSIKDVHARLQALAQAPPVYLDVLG
histidine-tagged recombinant human TrkA, cytoplasmic domain, sequence (P04629 440-796): as above

| Structure (SMILES) | pIC50 [1] | pIC50 [2] | ring closure, isolated yield (from NCCCn1cc(F)cc([C@H]2CCCN2c2ccn3ncc(C(=O)O)c3n2)c1=O, amide bond, 14-membered ring, EDCI/HOBt/TEA, DMF/DCM 1:2, 26.7 mM, 6.0 h) [%] | ring closure, yield of all isomers ([3]; from NCCCn1cc(F)cc([C@H]2CCCN2c2ccn3ncc(C(=O)O)c3n2)c1=O, amide bond, EDCI/HOBt, DCM, 26.7 mM, 25.0 °C, 6.0 h) [%] | ring closure, isolated yield (from O=C(NC[C@H](O)CCl)c1cnn2ccc(N3CCC[C@@H]3c3cc(F)c[nH]c3=O)nc12, other bond, 14-membered ring, Cs2CO3, DMF, […], 85.0 °C, 2.0 h) [%] | ring closure, yield of all isomers ([3]; from O=C(NC[C@H](O)CCl)c1cnn2ccc(N3CCC[C@@H]3c3cc(F)c[nH]c3=O)nc12, amine bond, Cs2CO3, DMF, […], 85.0 °C, 2.0 h) [%] | ring closure, isolated yield (from O=C(Nc1ccnn1CCO)c1cnn2ccc(N3CCC[C@@H]3c3cc(F)cnc3O)nc12, ether bond, 15-membered ring, DEAD/PPh3, THF, 14.3 mM, 2 steps) [%] | ring closure, yield of all isomers ([3]; from COc1ncc(F)cc1[C@H]1CCCN1c1ccn2ncc(C(=O)Nc3ccnn3CCO[Si](c3ccccc3)(c3ccccc3)C(C)(C)C)c2n1, ether bond, DEAD/PPh3, THF, 14.25 mM, 25.0 °C, 18.0 h, 2 steps) [%] |
| --- | --- | --- | --- | --- | --- | --- | --- | --- |
| O=C1NCCCn2cc(F)cc(c2=O)[C@H]2CCCN2c2ccn3ncc1c3n2 [Example 1, (6R)-9-fluoro-2,11,15,19,20,23-hexaazapentacyclo[15.5.2.1^7,11.0^2,6.0^20,24]pentacosa-1(23),7,9,17(24),18,21-hexaene-16,25-dione] | 7.00 to 9.00 | 7.00 to 9.00 | 39 | 39 | – | – | – | – |
| O=C1NC[C@H](O)Cn2cc(F)cc(c2=O)[C@H]2CCCN2c2ccn3ncc1c3n2 [Example 5, (6R,13S)-9-fluoro-13-hydroxy-2,11,15,19,20,23-hexaazapentacyclo-[15.5.2.1^7,11.0^2,6.0^20,24]pentacosa-1(23),7,9,17(24),18,21-hexaene-16,25-dione] | 7.00 to 9.00 | 7.00 to 9.00 | – | – | 12 | 27 | – | – |
| O=C1Nc2ccnn2CCOc2ncc(F)cc2[C@H]2CCCN2c2ccn3ncc1c3n2 [Example 38, (6R)-9-fluoro-13-oxa-2,11,16,17,21,25,26,29-octaazahexacyclo [21.5.2.0^2,6.0^7,12.0^16,20.0^26,30]triaconta-1(29),7,9,11,17,19,23(30),24,27-nonaen-22-one] | – | 7.00 to 9.00 | – | – | – | – | 1.5 | 1.5 |
